We go through one compound from patent publication US8242289B2, “Alkyl-substituted tetrahydropyrans as flavoring substances” (SYMRISE AG, priority 2009, dated 2012).

The nature of the test: Sensory comparison of flavored products with the flavor not according to the invention. Type of test: in vivo.

`CCC1OC(C)(CC)CCC1C(C)C` (stereo not shown) [2,6-diethyl-5-isopropyl-2-methyl-tetrahydropyran]: the feeling of freshness result (standard chewing gum (Example 2.12), 2% flavor composition) was “more intense feeling of freshness”; the feeling of freshness entry (sugar-free chewing gum (Example 2.11), 1% flavor composition, in particular initial phase of consumption) was “more intense feeling of freshness”; the feeling of freshness result (toothpaste, phosphate base (Example 2.13), 1% flavor composition, in particular at the start of brushing) is recorded as “distinct feeling of freshness”. In addition, the “fullness in the mouth” value (standard chewing gum (Example 2.12), 2% flavor composition, in particular at the start of chewing) is “greater fullness in the mouth” and the “fullness in the mouth” value (toothpaste 'silica opaque' (Example 2.15), 1% flavor composition, during brushing) is recorded as “increased fullness in the mouth”. Also, the boost effect result (sugar-free chewing gum (Example 2.11), 1% cinnamon type cool flavor) was “distinct “boost effect””. Under “toothpaste 'silica opaque' (Example 2.15), 1% flavor composition”, the “feeling in the mouth” value was “fresher feeling in the mouth”. Moreover, under “toothpaste, phosphate base (Example 2.13), 1% spearmint type flavor”, the “effect of the flavor when brushing” value was “intensified effect of the flavor when brushing”. For the same compound, under “toothpaste, transparent gel (Example 2.14), 1% flavor composition”, the retronasal cooling entry is reported as “distinct retronasal cooling”. Also, the freshness profile entry (toothpaste, transparent gel (Example 2.14), 1% flavor composition, during brushing) was “clearer freshness profile”.
